Experimental data from the supplement of paper PMC11061612.

Assays:
Assay in all cases: Bliss excess, mean over the matrix (fraction); higher = more synergy
[1] = system: NKM-1 (Acute Myeloid Leukemia)
Summary of the method: (§1)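 After 24 hours at 37°C and 5% CO2 in 1536-well plates, cells in DMEM/F12 or RPMI plus 10% FBS received two-drug dose matrices for 72 hours. Viability came from CellTiter-Glo 2.0 luminescence and was scaled as inhibition, anchored at 0 by vehicle wells and at 1 by blank wells. Combination Emax is taken as the second-highest inhibition in the matrix, and Bliss excess as the observed combination effect less EA + EB − EA·EB, with EA and EB the single-agent effects.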

[2] = system: RMG-I (Ovarian Carcinoma)
Summary of the method: as §1

[3] = system: RL95-2 (Endometrial Carcinoma)
Summary of the method: as §1

[4] = system: OCI-AML5 (Acute Myeloid Leukemia)
Summary of the method: as §1

[5] = system: LOUCY (T-Lymphoblastic Leukemia)
Summary of the method: as §1

[6] = system: SW684 (Other Solid Carcinomas)
Summary of the method: as §1

[7] = system: RERF-LC-KJ (Lung Adenocarcinoma)
Summary of the method: as §1

[8] = system: NCI-H810 (Non-Small Cell Lung Carcinoma)
Summary of the method: as §1

[9] = system: KYSE-70 (Esophageal Squamous Cell Carcinoma)
Summary of the method: as §1

[10] = system: PC-14 (Lung Adenocarcinoma)
Summary of the method: as §1

[11] = system: NCI-H1155 (Non-Small Cell Lung Carcinoma)
Summary of the method: as §1

[12] = system: NCI-H1623 (Lung Adenocarcinoma)
Summary of the method: as §1

[13] = system: COLO-684 (Endometrial Carcinoma)
Summary of the method: as §1

[14] = system: AsPC-1 (Pancreatic Carcinoma)
Summary of the method: as §1

[15] = system: OV-90 (Ovarian Carcinoma)
Summary of the method: as §1

[16] = system: Becker (Low Grade Glioma)
Summary of the method: as §1

[17] = system: BALL-1 (B-Lymphoblastic Leukemia)
Summary of the method: as §1

[18] = system: HSC-3 (Oral Cavity Carcinoma)
Summary of the method: as §1

KYM-1 (Rhabdomyosarcoma) = system: KYM-1 (Rhabdomyosarcoma)
Summary of the method: as §1

CHL-1 (Melanoma) = system: CHL-1 (Melanoma)
Summary of the method: as §1

Compound	Bliss excess [1]	Bliss excess [2]	Bliss excess [3]	Bliss excess [4]	Bliss excess [5]	Bliss excess [6]	Bliss excess [7]	Bliss excess [8]	Bliss excess [9]	Bliss excess [10]	Bliss excess [11]	Bliss excess [12]	Bliss excess [13]	Bliss excess [14]	Bliss excess [15]	Bliss excess [16]	Bliss excess [17]	Bliss excess [18]	Bliss excess (KYM-1 (Rhabdomyosarcoma))	Bliss excess (CHL-1 (Melanoma))
Cc1c2c(nn1C)CSCc1cc(n(C)n1)CSc1cc(c3ccccc3c1)OCCCc1c(C(=O)O)n(C)c3c-2c(Cl)ccc13 [AZD5991] + Cc1cc2ncnn2cc1Nc1ncc2c(n1)n(C1CCOCC1)c(=O)n2C [AZD7648] (first compound max 1 µM, 7x7, partner max 10 µM)	-0.0265	-0.0389	-0.0033	0.0059	-0.0479	-0.0222	0.0171	-0.0484	0.0024	-0.0088	-0.017	0.0374	0.0076	-0.0517	-0.039	0.0005	-0.0064	-0.0448	0.0136	0.0317
Cc1c2c(nn1C)CSCc1cc(n(C)n1)CSc1cc(c3ccccc3c1)OCCCc1c(C(=O)O)n(C)c3c-2c(Cl)ccc13 [AZD5991] + Cn1cnc2c(F)c(Nc3ccc(Br)cc3Cl)c(C(=O)NOCCO)cc21 [Selumetinib] (first compound max 1 µM, 7x7, partner max 3 µM)	-0.0014	-0.0027	0.0336	0.0422	0.0129	-0.0091	0.0466	-0.0133	0.0244	0.0286	0.0008	0.0184	-0.0177	-0.0325	-0.0143	-0.0092	-0.0064	0.0137	0.0084	-0.0031
C[C@@H]1COCCN1c1cc(C2([S@](C)(=N)=O)CC2)nc(-c2ccnc3[nH]ccc23)n1 [AZD6738] + O=C(c1cc(Cc2n[nH]c(=O)c3ccccc23)ccc1F)N1CCN(C(=O)C2CC2)CC1 [Olaparib] (first compound max 10 µM, 7x7, partner max 10 µM)	-0.0366	0.0255	0.0105	-0.0071	-0.0284	-0.0144	0.0228	-0.008	0.021	0.0132	0.0374	-0.0325	-0.109	-0.027	0.0053	-0.0077	-0.0204	0.0043	0.0088	-0.0498
Cc1cc2ncnn2cc1Nc1ncc2c(n1)n(C1CCOCC1)c(=O)n2C [AZD7648] + C=CCn1c(=O)c2cnc(Nc3ccc(N4CCN(C)CC4)cc3)nc2n1-c1cccc(C(C)(C)O)n1 [AZD1775] (first compound max 10 µM, partner max 1 µM)	-0.0556	0.02	-0.0629	0.0086	0.0464	-0.017	0.0509	-0.0103	0.0184	-0.025	0.033	0.0376	-0.0713	0.0558	-0.0163	-0.0269	-0.0169	-0.0488	0.0302	0.014
Cc1cc2ncnn2cc1Nc1ncc2c(n1)n(C1CCOCC1)c(=O)n2C [AZD7648] + CCN(CCO)CCCOc1ccc2c(Nc3cc(CC(=O)Nc4cccc(F)c4)[nH]n3)ncnc2c1 [AZD2811] (first compound max 10 µM, 7x7, partner max 1 µM)	0.0545	0.0097	0.0646	-0.0377	-0.043	-0.027	0.0428	-0.0162	0.0476	0.0257	0.0796	-0.0311	0.0234	-0.0312	-0.017	0.0154	0.13	0.0012	0.0571	0.0203
Cc1cc2ncnn2cc1Nc1ncc2c(n1)n(C1CCOCC1)c(=O)n2C [AZD7648] + CN(C)CCCOc1ccc(-c2ccc3ncc4c(c3c2)n(C2CCOCC2)c(=O)n4C)cn1 [AZD0156] (first compound max 10 µM, 7x7, partner max 1 µM)	-0.0039	-0.0322	0.0161	0.0276	0.0007	-0.056	0.0285	0.0125	0.0213	0.0186	0.0397	-0.0209	-0.0324	-0.0291	-0.0374	0.0066	-0.0108	0.0174	0.0278	0.0169
Cc1cc2ncnn2cc1Nc1ncc2c(n1)n(C1CCOCC1)c(=O)n2C [AZD7648] + C[C@@H]1COCCN1C2=NC(=NC(=C2)C3(CC3)[S@](=N)(=O)C)C4=C5C=CNC5=NC=C4 [AZD6738] (first compound max 10 µM, 7x7, partner max 10 µM)	-0.0051	0.0557	0.024	-0.0209	0.0271	-0.0272	0.0386	-0.0367	0.0213	0.0031	0.0038	0.0359	-0.0527	0.0133	-0.0156	-0.0207	0.0025	-0.0299	0.0015	0.0093
Cc1cc2ncnn2cc1Nc1ncc2c(n1)n(C1CCOCC1)c(=O)n2C [AZD7648] + O=C(c1cc(Cc2n[nH]c(=O)c3ccccc23)ccc1F)N1CCN(C(=O)C2CC2)CC1 [Olaparib] (first compound max 10 µM, 7x7, partner max 10 µM)	0.0104	-0.0685	-0.0444	0.0077	-0.0388	-0.0452	-0.0546	-0.0482	-0.0528	-0.0245	-0.0235	-0.0486	-0.0054	-0.0567	-0.0419	-0.0281	0.0624	-0.0102	-0.0078	-0.0266
NC1(C(=O)N[C@@H](CCO)c2ccc(Cl)cc2)CCN(c2ncnc3[nH]ccc23)CC1 [Capivasertib] + CC(=O)c1c(C)c2cnc(Nc3ccc(N4CCNCC4)cn3)nc2n(C2CCCC2)c1=O [Palbociclib] (first compound max 10 µM, 7x7, partner max 10 µM)	-0.0204	-0.0098	0.0215	-0.0096	0.0824	0.0176	0.0307	-0.0346	0.0188	0.0388	-0.0084	-0.0156	-0.0759	-0.025	-0.0562	0.0816	0.0245	-0.0076	-0.0312	-0.0082
NC1(C(=O)N[C@@H](CCO)c2ccc(Cl)cc2)CCN(c2ncnc3[nH]ccc23)CC1 [Capivasertib] + CC(C)n1c(=O)n(C)c2cnc3cc(F)c(-c4ccc(OCCCN5CCCCC5)nc4)cc3c21 [AZD1390] (first compound max 10 µM, 7x7, partner max 0.3 µM)	-0.111	-0.062	-0.0709	-0.0369	-0.0101	-0.0057	-0.0017	-0.0543	-0.063	-0.0168	-0.031	-0.024	-0.0909	-0.0512	-0.0325	-0.0136	-0.0292	-0.0746	-0.0278	-0.0209
NC1(C(=O)N[C@@H](CCO)c2ccc(Cl)cc2)CCN(c2ncnc3[nH]ccc23)CC1 [Capivasertib] + CCN(CCO)CCCOc1ccc2c(Nc3cc(CC(=O)Nc4cccc(F)c4)[nH]n3)ncnc2c1 [AZD2811] (first compound max 10 µM, 7x7, partner max 1 µM)	-0.0299	-0.0214	-0.0051	-0.0465	-0.104	-0.0532	-0.0135	-0.0195	-0.0902	0.028	-0.0152	0.0004	0.0272	-0.0655	-0.0272	-0.0136	0.0356	-0.0374	-0.0457	-0.0092
NC1(C(=O)N[C@@H](CCO)c2ccc(Cl)cc2)CCN(c2ncnc3[nH]ccc23)CC1 [Capivasertib] + COc1nnc2ccc(N3CCC(c4ccc(OCCN5CCN(C)C(=O)[C@H]5C)cc4)CC3)nn12 [AZD5153] (first compound max 10 µM, 7x7, partner max 1 µM)	-0.0157	-0.0448	-0.002	0.0552	0.0912	0.004	-0.0437	0.0078	-0.0109	0.0461	0.0992	0.0638	-0.0133	-0.0273	0.0045	0.0414	-0.0339	0.0078	-0.0306	0.0143
NC1(C(=O)N[C@@H](CCO)c2ccc(Cl)cc2)CCN(c2ncnc3[nH]ccc23)CC1 [Capivasertib] + C[C@@H]1COCCN1C2=NC(=NC(=C2)C3(CC3)[S@](=N)(=O)C)C4=C5C=CNC5=NC=C4 [AZD6738] (first compound max 10 µM, 7x7, partner max 10 µM)	-0.0479	-0.0371	-0.0803	-0.017	-0.0482	-0.0465	-0.0722	-0.0575	-0.0691	-0.0355	-0.0362	-0.0522	-0.0262	-0.0359	-0.0159	-0.0135	-0.0066	-0.0346	-0.0693	-0.0329
NC1(C(=O)N[C@@H](CCO)c2ccc(Cl)cc2)CCN(c2ncnc3[nH]ccc23)CC1 [Capivasertib] + Cn1cnc2c(F)c(Nc3ccc(Br)cc3Cl)c(C(=O)NOCCO)cc21 [Selumetinib] (first compound max 10 µM, 7x7, partner max 10 µM)	0.142	0.0235	0.0367	0.0645	0.0806	0.0495	0.0517	-0.014	-0.0073	0.0938	0.0293	0.0623	-0.0343	-0.039	-0.0313	0.0788	0.0317	0.0081	-0.0072	0.0588
Cc1nc(Nc2ncc(C(=O)Nc3c(C)cccc3Cl)s2)cc(N2CCN(CCO)CC2)n1 [Dasatinib] + CC(=O)Nc1cccc(-n2c(=O)n(C3CC3)c(=O)c3c(Nc4ccc(I)cc4F)n(C)c(=O)c(C)c32)c1 [Trametinib] (first compound max 2 µM, 7x7, partner max 1 µM)	-0.0196	-0.0276	-0.186	-0.0515	0.0286	0.0004	-0.0295	-0.0565	-0.0729	0.0079	-0.0132	-0.0775	-0.0482	0.0506	-0.0067	0.0234	-0.0108	-0.0444	-0.0178	0.0137
